Our source for the melting point and Ki values is US20120202814A1, “COMPOUNDS WITH DDX3 INHIBITORY ACTIVITY AND USES THEREOF” (UNIVERSITÀ DEGLI STUDI DI SIENA, priority 2009, published 2012).

Each structure is given as a SMILES string.

Data set [1] has as its target T1, human DDX3 (ATPase activity) (Homo sapiens, UniProt O00571).
T1 construct: made in house; host or cells: E. coli
In words: Human DDX3 ATPase activity assay (luciferase-based luminescence). The format is biochemical. Particulars: DDX3 ATPase activity; read-out: Ki (μM), apparent equilibrium dissociation constant for the inhibitor to the target enzyme DDX3. The procedure:
ATPase activity was tested with a luciferase-based luminescence assay (Easylite-Kinase, Perkin Elmer) on 96 wells microtiter plates. Briefly, recombinant purified human DDX3 (50-100 ng) was incubated in a 15 μL total reaction volume with reaction buffer (25 mM TrisHCl pH 7.5, 5 mM MgCl2), in the presence of increasing amounts of ATP and/or different combinations of ATP and the inhibitor to be tested. Reference curves in the absence of inhibitor (giving the 100% of enzymatic activity) and in the absence of enzyme (giving the baseline), were also included in each experiment. Reading was performed with a Microbeta Trilux (Perkin Elmer) luminometer, according to the manufacturer's protocol.
ATPase reactions were performed as described, in the presence of increasing amounts of inhibitor and variable ATP concentrations. Variations of the initial velocities of the reaction as a function of ATP concentrations in the absence or presence of 4 were analyzed with the equation: […]
Variation of the % inhibition as a function of compound FE15 at different ATP concentrations were fitted to the equation for cooperative binding: […]
where Vmax is the apparent maximal rate of the reaction in the absence of the inhibitor, [I] is the variable inhibitor concentration, n is the cooperativity index and Ki(app) is the apparent inhibition constant. Comparatively, fitting was done with the same Eq. (2) where n was kept fixed at the value of 1 (non-cooperativity hypothesis). F test was used to compare the two fittings and p value was calculated.
Human recombinant DDX3 was cloned, expressed and purified as described (Franca et al. Proteins 2007, 67, 1128-37).
The anti-DDX3 activity of the compounds of the invention was evaluated by in vitro ATPase activity assay using the recombinant human DDX3 protein produced in E. coli. The potency of inhibition (Ki) for each molecule was calculated, representing the concentration of the inhibitor able to reduce the DDX3 ATPase activity by 50%

T1 sequence (O00571 whole entry): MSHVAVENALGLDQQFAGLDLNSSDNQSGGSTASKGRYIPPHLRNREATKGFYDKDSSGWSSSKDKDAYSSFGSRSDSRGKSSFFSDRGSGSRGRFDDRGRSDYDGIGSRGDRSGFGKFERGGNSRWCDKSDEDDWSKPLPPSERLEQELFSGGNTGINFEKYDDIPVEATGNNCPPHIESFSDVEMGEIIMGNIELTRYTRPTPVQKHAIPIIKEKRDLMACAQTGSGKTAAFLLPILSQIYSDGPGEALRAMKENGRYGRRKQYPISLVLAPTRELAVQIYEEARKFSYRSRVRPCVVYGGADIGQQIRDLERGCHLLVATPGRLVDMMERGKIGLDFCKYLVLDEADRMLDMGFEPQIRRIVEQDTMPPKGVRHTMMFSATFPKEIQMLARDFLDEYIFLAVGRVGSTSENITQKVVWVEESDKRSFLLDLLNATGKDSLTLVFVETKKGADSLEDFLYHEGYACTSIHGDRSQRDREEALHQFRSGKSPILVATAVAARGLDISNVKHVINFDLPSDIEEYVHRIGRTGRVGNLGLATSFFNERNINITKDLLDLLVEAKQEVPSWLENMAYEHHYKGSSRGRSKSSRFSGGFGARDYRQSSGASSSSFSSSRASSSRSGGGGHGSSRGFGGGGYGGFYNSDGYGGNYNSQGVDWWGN

`O=C1/C(=C/c2cccc(Br)c2)SC(=S)N1CCc1ccccc1` [Compound 3a, (Z)-5-(3-bromobenzylidene)-3-phenethyl-2-thioxothiazolidin-4-one] returned a melting point of 102 to 104 °C.

For `O=C1/C(=C/c2cccc(Br)c2)SC(=S)N1Cc1ccccc1` [Compound 3b, (Z)-5-(3-bromobenzylidene)-3-benzyl-2-thioxothiazolidin-4-one], the melting point was 112 to 113 °C.

Regarding `C#CN1C(=O)/C(=C/c2cccc(Br)c2)SC1=S` [Compound 3c, (Z)-5-(3-bromobenzylidene)-3-ethynyl-2-thioxothiazolidin-4-one], the melting point was 159 to 161 °C.

The compound `COC(CN1C(=O)/C(=C/c2cccc(Br)c2)SC1=S)OC` [Compound 3d, (Z)-5-(3-bromobenzylidene)-3-(2,2-dimethoxyethyl)-2-thioxothiazolidin-4-one] showed a melting point of 124 to 126 °C.

The compound `CCCCN1C(=O)/C(=C/c2cccc(Br)c2)SC1=S` [Compound 3e, (Z)-5-(3-bromobenzylidene)-3-butyl-2-thioxothiazolidin-4-one] had a melting point of 113 to 115 °C.

Take `COc1cccc(/C=C2\SC(=S)N(CCc3ccccc3)C2=O)c1` [Compound 3f, (Z)-5-(3-methoxybenzylidene)-3-phenethyl-2-thioxothiazolidin-4-one]: the melting point fell in the range of 122 to 125 °C.

For `O=C1/C(=C/c2ccco2)SC(=S)N1CCc1ccccc1` [Compound 3g, (Z)-5-((furan-2-yl)methylene)-3-phenethyl-2-thioxothiazolidin-4-one], the melting point was 150 to 152 °C.

`O=C1/C(=C/c2cccnc2)SC(=S)N1CCc1ccccc1` [Compound 3h, (Z)-3-phenethyl-5-((pyridin-3-yl)methylene)-2-thioxothiazolidin-4-one] showed a melting point of 138 to 140 °C.

`O=C1/C(=C/c2ccc3ccccc3c2)SC(=S)N1CCc1ccccc1` [Compound 3i, (Z)-5-((naphthalen-3-yl)methylene)-3-phenethyl-2-thioxothiazolidin-4-one] showed a melting point of 174 to 176 °C.

As to `O=C(NCCN1C(=O)/C(=C/c2cccc(Br)c2)SC1=S)c1ccccc1O` [Compound 3j, N-(2-((Z)-5-(3-Bromobenzylidene)-4-oxo-2-thioxothiazolidin-3-yl)ethyl)-2-hydroxybenzamide], the Ki in data set [1] was found to be 4.2 µM.

As to `O=C(NCCN1C(=O)/C(=C/c2cccc(F)c2)SC1=S)c1ccccc1O` [Compound 3k, N-(2-((Z)-5-(3-Fluorobenzylidene)-4-oxo-2-thioxothiazolidin-3-yl)ethyl)-2-hydroxy-benzamide], the Ki in data set [1] was found to be 4.3 µM.

Consider `O=C(CCN1C(=O)C/C(=C\c2cccc(Br)c2)C1=O)Nc1ccccc1O` [Compound 6b, 3-((E)-3-(3-bromobenzylidene)-2,5-dioxopyrrolidin-1-yl)-N-(2-hydroxyphenyl)propanamide], for which the Ki in data set [1] amounted to 28 µM.

For the compound `Fc1ccc(Nc2nc(N/N=C/c3cccc4ccccc34)nc(N3CCOCC3)n2)cc1` [Compound 11a, (E)-N-(4-fluorophenyl)-4-morpholino-6-(2-(naphthalen-1-ylmethylene)hydrazinyl)-1,3,5-triazin-2-amine], the melting point fell in the range of 220 to 220.4 °C. For the same compound, the Ki in data set [1] came to 86 µM.

On to `Fc1ccc(Nc2nc(N/N=C/c3ccc4ccccc4c3)nc(N3CCOCC3)n2)cc1` [Compound 11b, (E)-N-(4-fluorophenyl)-4-morpholino-6-(2-(naphthalen-2-ylmethylene)hydrazinyl)-1,3,5-triazin-2-amine], for which the melting point lay in the range of 225 to 226 °C. Besides, in data set [1], the Ki was 8.5 µM.

In turn, `Fc1ccc(Nc2nc(N/N=C/c3c(F)cccc3F)nc(N3CCOCC3)n2)cc1` [Compound 11c, (E)-4-(2-(2,6-difluorobenzylidene)hydrazinyl)-N-(4-fluorophenyl)-6-morpholino-1,3,5-triazin-2-amine] gave a melting point of 155.5 to 156 °C. In addition, in data set [1], the Ki was determined as 2.6 µM.

`O=C1Nc2ccccc2/C1=N/Nc1nc(NCc2cccc(Cl)c2)nc(N2CCOCC2)n1` [Compound 14f, (Z)-3-(2-(4-(3-Chlorobenzylamino)-6-morpholino-1,3,5-triazin-2-yl)hydrazono)indolin-2-one] displayed a melting point of 144 to 144.5 °C. Besides, the Ki in data set [1] stood at 2.9 µM.

For the compound `Oc1ccccc1/C=N/Nc1nc(NCc2cccc(Cl)c2)nc(N2CCOCC2)n1` [Compound 15j, (E)-2-((2-(4-(3-chlorobenzylamino)-6-morpholino-1,3,5-triazin-2-yl)hydrazono)methyl)phenol], the melting point was in the range of 163.5 to 164 °C. Besides, in data set [1], the Ki amounted to 62 µM.

Turning to `OCCc1cc(Nc2ccc(F)cc2)nc(N/N=C/c2ccccc2O)n1` [Compound 22, 2-((2-(4-(4-Fluorophenylamino)-6-(2-hydroxyethyl)pyrimidin-2-yl)hydrazono)methyl)phenol], the Ki in data set [1] was found to be 9 µM.

`O=C(CCN1C(=O)/C(=C/c2cc(F)cc(F)c2)SC1=S)Nc1ccccc1O` [Compound 35c, 3-((Z)-5-(3,5-Difluorobenzylidene)-4-oxo-2-thioxothiazolidin-3-yl)-N-(2-hydroxyphenyl) propanamide] showed a melting point of 235 to 237 °C. Besides, in data set [1], the Ki turned out to be 0.5 µM.

In turn, `Cc1cccc(/C=C2\SC(=S)N(CCC(=O)Nc3ccccc3O)C2=O)c1` [Compound 35d, 3-((Z)-5-(3-Methylbenzylidene)-4-oxo-2-thioxothiazolidin-3-yl)-N-(2-hydroxyphenyl) propanamide] had a melting point of 208 to 209 °C. Also, in data set [1], the Ki was 97 µM.

The compound `COc1cccc(/C=C2\SC(=S)N(CCC(=O)Nc3ccccc3O)C2=O)c1` [Compound 35e, 3-((Z)-5-(3-Methoxybenzylidene)-4-oxo-2-thioxothiazolidin-3-yl)-N-(2-hydroxyphenyl) propanamide] registered a melting point of 200 to 202 °C. The Ki in data set [1] came to 10 µM.

In turn, `O=C(CCN1C(=O)/C(=C/c2ccc3c(c2)OCO3)SC1=S)Nc1ccccc1O` [Compound 35f, 3-((Z)-5-((Benzo[d][1,3]dioxol-5-yl)methylene)-4-oxo-2-thioxothiazolidin-3-yl)-N-(2-hydroxyphenyl)propanamide] displayed a melting point of 240 to 241 °C. In addition, in data set [1], the Ki was determined as 1 µM.

On to `O=C(CCN1C(=O)/C(=C/c2cccc(Br)c2)SC1=S)Nc1ccccc1[N+](=O)[O-]` [Compound 35g, 3-((Z)-5-(3-Bromobenzylidene)-4-oxo-2-thioxothiazolidin-3-yl)-N-(2-nitrophenyl)propanamide], for which the melting point is 204 to 206 °C. Also, the Ki in data set [1] stood at 8.7 µM.

On to `O=C(CCN1C(=O)/C(=C/c2cccc(F)c2)SC1=S)Nc1ccccc1[N+](=O)[O-]` [Compound 35h, 3-((Z)-5-(3-Fluorobenzylidene)-4-oxo-2-thioxothiazolidin-3-yl)-N-(2-nitrophenyl)propanamide], for which the melting point was 207 to 208 °C. Also, in data set [1], the Ki was 7.6 µM.

In the case of `Clc1ccccc1-c1ccc(/C=N/Nc2nc(Nc3ccccc3)nc(N3CCOCC3)n2)o1` [FE-56AA], the Ki in data set [1] was found to be 3.2 µM.

Take `O=C1Nc2ccccc2/C1=N\Nc1nc(Nc2cccc(Cl)c2)nc(N2CCOCC2)n1` [FE-56AD]: in data set [1], the Ki is 2 µM.

Take `Cc1ccc(Nc2nc(N/N=C3/C(=O)Nc4ccccc43)nc(N3CCOCC3)n2)cc1Cl` [FE-56AH]: the Ki in data set [1] was 3.2 µM.

On to `CC(=O)Nc1ccc(/C(C)=N/Nc2nc(Nc3ccccc3)nc(N3CCOCC3)n2)cc1` [FE-56AI], for which, in data set [1], the Ki amounted to 2.2 µM.

As to `Cc1ccc(Nc2nc(N/N=C/c3ccccc3O)nc(N3CCOCC3)n2)cc1Cl` [FE-56AM], in data set [1], the Ki turned out to be 1.6 µM.

On to `CC(=O)Nc1ccc(/C(C)=N/Nc2nc(NCc3ccccc3)nc(N3CCOCC3)n2)cc1` [FE-56AN], for which the Ki in data set [1] stood at 0.5 µM.

On to `Oc1ccc(/C=N/Nc2nc(Nc3ccccc3)nc(Nc3ccccc3)n2)c(O)c1` [FE-56I], for which the Ki in data set [1] was 33 µM.

For `Clc1ccc(/C=N/Nc2nc(Nc3ccccc3)nc(Nc3ccccc3)n2)cc1Cl` [FE-56O], in data set [1], the Ki amounted to 18 µM.

Turning to `O=C(Oc1cccc(/C=N/Nc2nc(Nc3ccccc3)nc(N3CCOCC3)n2)c1)c1ccco1` [FE-56U], in data set [1], the Ki was found to be 6.3 µM.

With `O=[N+]([O-])c1ccc(Cl)c(-c2ccc(/C=N/Nc3nc(Nc4ccc(F)cc4)nc(N4CCOCC4)n3)o2)c1` [FE-56V], the Ki in data set [1] turned out to be 3.6 µM.

As for `COc1ccc(Nc2nc(NCc3ccco3)nc(N/N=C/c3ccc(-c4ccccc4[N+](=O)[O-])o3)n2)cc1` [FE-56Z], the Ki in data set [1] came to 1.9 µM.

For `COc1cc(/C=C2\SC(=S)N(CCC(=O)N3CCCc4ccccc43)C2=O)cc(OC)c1OC` [FE-69], the Ki in data set [1] amounted to 0.9 µM.

Take `O=C(CCN1C(=O)/C(=C/c2ccc3c(c2)OCO3)SC1=S)Nc1ccccc1C(=O)O` [FE-70]: in data set [1], the Ki was found to be 0.4 µM.

For `COc1cc(/C=C2\SC(=S)N(CCC(=O)Nc3ccccc3O)C2=O)cc(OC)c1OC` [FE-74], the Ki in data set [1] stood at 0.1 µM.

As for `COc1ccc(/C=C2\SC(=S)N(CCC(=O)Nc3ccccc3C(=O)O)C2=O)cc1` [FE-77], the Ki in data set [1] stood at 2 µM.
